# Measurements as given in article PMC6979384, “Characterization of the plant homeodomain (PHD) reader family for their histone tail interactions” (Epigenetics & Chromatin, 2020).
# How the values were obtained:
# Assay in all cases: Histone peptide microarray
# Format in all cases: binding, human
# CHD5 (PCC) = settings: GST-tagged CHD5 (PCC = PHD + Dual Chromodomain), sheet Array Heatmap, each array performed twice, total n = 4
# Outline: (§1)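 GST-tagged PHD readers, 0.5 μM, probed on a microarray of 293 synthetic histone peptides carrying single or combinatorial PTMs (optimized Petell protocol). Signals are averaged over 4 replicates and expressed as relative binding.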
# PHF23 = settings: GST-tagged PHF23, sheet Array Heatmap, each array performed twice, total n = 4
# Outline: as §1
# MORC3 (CW) = settings: GST-tagged MORC3 (CW = CW-type Zn-finger), sheet Array Heatmap, each array performed twice, total n = 4
# Outline: as §1
# RAG2 = settings: GST-tagged RAG2, sheet Array Heatmap, each array performed twice, total n = 4
# Outline: as §1
# KDM4C (TTP) = settings: GST-tagged KDM4C (TTP = Tandem Tudor domain + PHD), sheet Array Heatmap, each array performed twice, total n = 4
# Outline: as §1
# ING4 = settings: GST-tagged ING4, sheet Array Heatmap, each array performed twice, total n = 4
# Outline: as §1
# CHD4 (PPCC) = settings: for Array Heatmap signal (histone peptide microarray): GST-tagged CHD4 (PPCC = Dual PHD + Dual Chromodomain), sheet Array Heatmap, each array performed twice, total n = 4
# Outline: as §1
# KDM5A (1) = settings: GST-tagged KDM5A (1), sheet Array Heatmap, each array performed twice, total n = 4
# Outline: as §1
# TAF3 = settings: GST-tagged TAF3, sheet Array Heatmap, each array performed twice, total n = 4
# Outline: as §1
# ING5 = settings: GST-tagged ING5, sheet Array Heatmap, each array performed twice, total n = 4
# Outline: as §1
# DPF2 (PPC2W2) = settings: GST-tagged DPF2 (PPC2W2 = Dual PHD + C2W2-type Zn-finger), sheet Array Heatmap, each array performed twice, total n = 4
# Outline: as §1
# KDM5B (1) = settings: GST-tagged KDM5B (1), sheet Array Heatmap, each array performed twice, total n = 4
# Outline: as §1
# KDM5B (3) = settings: GST-tagged KDM5B (3), sheet Array Heatmap, each array performed twice, total n = 4
# Outline: as §1
# PHF8 = settings: GST-tagged PHF8, sheet Array Heatmap, each array performed twice, total n = 4
# Outline: as §1
# SP140L = settings: GST-tagged SP140L, sheet Array Heatmap, each array performed twice, total n = 4
# Outline: as §1
# PHRF1 (RP) = settings: GST-tagged PHRF1 (RP), sheet Array Heatmap, each array performed twice, total n = 4
# Outline: as §1
# PHF2 = settings: GST-tagged PHF2, sheet Array Heatmap, each array performed twice, total n = 4
# Outline: as §1
# TRIM66 (PB) = settings: GST-tagged TRIM66 (PB = PHD + Bromodomain), sheet Array Heatmap, each array performed twice, total n = 4
# Outline: as §1
# PHF21A = settings: GST-tagged PHF21A, sheet Array Heatmap, each array performed twice, total n = 4
# Outline: as §1
# ING1 = settings: GST-tagged ING1, sheet Array Heatmap, each array performed twice, total n = 4
# Outline: as §1
# BAZ2B = settings: GST-tagged BAZ2B, sheet Array Heatmap, each array performed twice, total n = 4
# Outline: as §1
# KDM5A (3) = settings: GST-tagged KDM5A (3), sheet Array Heatmap, each array performed twice, total n = 4
# Outline: as §1
# CHD5 (PPCC) = settings: GST-tagged CHD5 (PPCC = Dual PHD + Dual Chromodomain), sheet Array Heatmap, each array performed twice, total n = 4
# Outline: as §1
# DIDO1 = settings: GST-tagged DIDO1, sheet Array Heatmap, each array performed twice, total n = 4
# Outline: as §1
# KDM7A = settings: GST-tagged KDM7A, sheet Array Heatmap, each array performed twice, total n = 4
# Outline: as §1
# BPTF (PB) = settings: GST-tagged BPTF (PB = PHD + Bromodomain), sheet Array Heatmap, each array performed twice, total n = 4
# Outline: as §1
substance,measurement,setting,value
H3K9ac: H3 1-20 [Peptide H3K9ac],Array Heatmap signal (histone peptide microarray),CHD5 (PCC); listed as 2,0.8342
same,Array Heatmap signal (histone peptide microarray),CHD5 (PCC); listed as 3,0.7526
same,Array Heatmap signal (histone peptide microarray),PHF23; listed as 2,0.5351
same,Array Heatmap signal (histone peptide microarray),PHF23; listed as 3,0.5457
same,Array Heatmap signal (histone peptide microarray),MORC3 (CW); listed as 2,0.5166
same,Array Heatmap signal (histone peptide microarray),MORC3 (CW); listed as 3,0.5177
same,Array Heatmap signal (histone peptide microarray),RAG2; listed as 2,0.3184
same,Array Heatmap signal (histone peptide microarray),RAG2; listed as 3,0.2998
same,Array Heatmap signal (histone peptide microarray),KDM4C (TTP); listed as 2,0.4318
same,Array Heatmap signal (histone peptide microarray),KDM4C (TTP); listed as 3,0.4332
same,Array Heatmap signal (histone peptide microarray),ING4; listed as 2,0.4346
same,Array Heatmap signal (histone peptide microarray),ING4; listed as 3,0.4319
same,Array Heatmap signal (histone peptide microarray),CHD4 (PPCC); listed as 2,0.6247
same,Array Heatmap signal (histone peptide microarray),CHD4 (PPCC); listed as 3,0.6748
same,relative binding,"CHD4 (PPCC); peptide microarray, reader 0.5 μM, n = 4",increased binding
same,Array Heatmap signal (histone peptide microarray),KDM5A (1); listed as 2,0.4743
same,Array Heatmap signal (histone peptide microarray),KDM5A (1); listed as 3,0.4479
same,Array Heatmap signal (histone peptide microarray),TAF3; listed as 2,0.3565
same,Array Heatmap signal (histone peptide microarray),TAF3; listed as 3,0.3052
same,Array Heatmap signal (histone peptide microarray),ING5; listed as 2,0.3289
same,Array Heatmap signal (histone peptide microarray),ING5; listed as 3,0.3311
same,Array Heatmap signal (histone peptide microarray),DPF2 (PPC2W2); listed as 2,0.7428
same,Array Heatmap signal (histone peptide microarray),DPF2 (PPC2W2); listed as 3,0.7589
same,Array Heatmap signal (histone peptide microarray),KDM5B (1); listed as 2,0.6899
same,Array Heatmap signal (histone peptide microarray),KDM5B (1); listed as 3,0.6761
same,Array Heatmap signal (histone peptide microarray),KDM5B (3); listed as 2,0.5795
same,Array Heatmap signal (histone peptide microarray),KDM5B (3); listed as 3,0.5654
same,Array Heatmap signal (histone peptide microarray),PHF8; listed as 2,0.3437
same,Array Heatmap signal (histone peptide microarray),PHF8; listed as 3,0.3517
same,Array Heatmap signal (histone peptide microarray),SP140L; listed as 2,0.3674
same,Array Heatmap signal (histone peptide microarray),SP140L; listed as 3,0.3745
same,Array Heatmap signal (histone peptide microarray),PHRF1 (RP); listed as 2,0.9096
same,Array Heatmap signal (histone peptide microarray),PHRF1 (RP); listed as 3,0.8949
same,Array Heatmap signal (histone peptide microarray),PHF2; listed as 2,0.6188
same,Array Heatmap signal (histone peptide microarray),PHF2; listed as 3,0.5837
same,Array Heatmap signal (histone peptide microarray),TRIM66 (PB); listed as 2,0.8314
same,Array Heatmap signal (histone peptide microarray),TRIM66 (PB); listed as 3,0.731
same,Array Heatmap signal (histone peptide microarray),PHF21A; listed as 2,0.4621
same,Array Heatmap signal (histone peptide microarray),PHF21A; listed as 3,0.47
same,Array Heatmap signal (histone peptide microarray),ING1; listed as 2,0.5257
same,Array Heatmap signal (histone peptide microarray),ING1; listed as 3,0.5645
same,Array Heatmap signal (histone peptide microarray),BAZ2B; listed as 2,0.4731
same,Array Heatmap signal (histone peptide microarray),BAZ2B; listed as 3,0.4634
same,Array Heatmap signal (histone peptide microarray),KDM5A (3); listed as 2,0.6003
same,Array Heatmap signal (histone peptide microarray),KDM5A (3); listed as 3,0.6283
same,Array Heatmap signal (histone peptide microarray),CHD5 (PPCC); listed as 2,0.5875
same,Array Heatmap signal (histone peptide microarray),CHD5 (PPCC); listed as 3,0.5535
same,Array Heatmap signal (histone peptide microarray),DIDO1; listed as 2,0.6642
same,Array Heatmap signal (histone peptide microarray),DIDO1; listed as 3,0.7409
same,Array Heatmap signal (histone peptide microarray),KDM7A; listed as 2,0.303
same,Array Heatmap signal (histone peptide microarray),KDM7A; listed as 3,0.3051
same,Array Heatmap signal (histone peptide microarray),BPTF (PB); listed as 2,0.3339
same,Array Heatmap signal (histone peptide microarray),BPTF (PB); listed as 3,0.3268
